Measured values: US9802901B2, “Antibacterial 2H-indazole derivatives” (priority 2013, dated 2017)
In brackets after ≈: the same amount, converted by molar mass.

Legend:
Assay in all cases: Bacterial growth minimal inhibitory concentration (broth microdilution, CLSI M7-A7)
[1] = test system: Acinetobacter baumannii T6474; assay type: cell-based; conditions: Acinetobacter baumannii, T6474; cation-adjusted Mueller-Hinton Broth, microdilution; multiply-resistant (quinolone-resistant) strain; read-out: MIC for A. Baumannii T6474
Method: (§1) Minimal Inhibitory Concentrations (MICs; mg/L) were determined in cation-adjusted Mueller-Hinton Broth by a microdilution method following the description given in “Methods for Dilution Antimicrobial Susceptibility Tests for Bacteria that Grow Aerobically”, Approved standard, 7th ed., Clinical and Laboratory Standards Institute (CLSI) Document M7-A7, Wayne, Pa., USA (2006).
(§2) All Example compounds, except the compound of Example 62, were tested against several Gram-positive and Gram-negative bacteria. […] K. pneumoniae A-651 and Acinetobacter baumannii T6474 are multiply-resistant strains (in particular quinolone-resistant), while E. coli ATCC25922 and P. aeruginosa ATCC27853 are quinolone-sensitive strains.

[2] = test system: K. pneumoniae A-651; assay type: cell-based, Klebsiella pneumoniae; conditions: Klebsiella pneumoniae, A651; cation-adjusted Mueller-Hinton Broth, microdilution; multiply-resistant (quinolone-resistant) strain; read-out: MIC for K. Pneumoniae A-651
Method: as §1, §2

[3] = test system: P. aeruginosa ATCC27853; assay type: cell-based, Pseudomonas aeruginosa; conditions: Pseudomonas aeruginosa, ATCC27853; cation-adjusted Mueller-Hinton Broth, microdilution; quinolone-sensitive strain; read-out: MIC for P. aeruginosa ATCC27853
Method: as §1, §2

[4] = test system: E. coli ATCC25922; assay type: cell-based, Escherichia coli; conditions: Escherichia coli, ATCC25922; cation-adjusted Mueller-Hinton Broth, microdilution; quinolone-sensitive strain; read-out: MIC for E. coli ATCC25922
Method: as §1, §2

Row | MIC [1] [µg/mL] | MIC [2] [µg/mL] | MIC [3] [µg/mL] | MIC [4] [µg/mL] | Structure (SMILES)
1 | 4 | 1 | 4 | 0.5 | CC(CCn1cc2cc(-c3ccc(OCCCN4CCOCC4)cc3)ccc2n1)(C(=O)NO)S(C)(=O)=O.O=CO (racemic) [RE1, (RS)—N-hydroxy-2-methylsulfonyl-2-methyl-4-{5-[4-(3-morpholin-4-yl-propoxy)-phenyl]-indazol-2-yl}-butanamide formic acid salt]
2 | 4 | 1 | 4 | 1 | CC(CCn1cc2cc(-c3ccc(OCCN4CCOCC4)cc3)ccc2n1)(C(=O)NO)S(C)(=O)=O.O=CO (racemic) [RE2, (RS)—N-hydroxy-2-methylsulfonyl-2-methyl-4-{5-[4-(2-morpholin-4-yl-ethoxy)-phenyl]-indazol-2-yl}-butanamide formic acid salt]
3 | 8 | 2 | 8 | 1 | CC(CCn1cc2cc(-c3ccc(OCCN4CCOCC4)cc3F)ccc2n1)(C(=O)NO)S(C)(=O)=O.O=CO (racemic) [RE3, (RS)-4-{5-[2-fluoro-4-(2-morpholin-4-yl-ethoxy)-phenyl]-indazol-2-yl}-N-hydroxy-2-methylsulfonyl-2-methyl-butanamide formic acid salt]
4 | 32 (≈ 84.3 µM) | 8 (≈ 21.1 µM) | 8 (≈ 21.1 µM) | 4 (≈ 10.5 µM) | CC#CCOc1ccc2nn(CCC(C)(C(=O)NO)S(C)(=O)=O)cc2c1 (racemic) [RE4, (RS)-4-(5-but-2-ynyloxy-indazol-2-yl)-N-hydroxy-2-methylsulfonyl-2-methyl-butanamide]
5 | 0.25 (≈ 0.602 µM) | 2 (≈ 4.81 µM) | 8 (≈ 19.3 µM) | 0.5 (≈ 1.2 µM) | CC(CCn1cc2cc(CCc3ccccc3)ccc2n1)(C(=O)NO)S(C)(=O)=O (racemic) [RE5, (RS)—N-hydroxy-2-methylsulfonyl-2-methyl-4-(5-phenethyl-indazol-2-yl)-butanamide]
6 | 4 | 0.25 | 8 | 0.125 | CC(CCn1cc2cc(-c3ccc(-c4ncco4)cc3)ccc2n1)(C(=O)NO)S(C)(=O)=O.O=CO (racemic) [RE6, (RS)—N-hydroxy-2-methylsulfonyl-2-methyl-4-[5-(4-oxazol-2-yl-phenyl)-indazol-2-yl]-butanamide formic acid salt]
7 | 0.5 (≈ 1.15 µM) | 0.125 (≈ 0.287 µM) | 2 (≈ 4.59 µM) | 0.125 (≈ 0.287 µM) | COc1cccc(-c2ccc3nn(CCC(C)(C(=O)NO)S(C)(=O)=O)cc3c2)c1F (racemic) [RE7, (RS)-4-(5-(2-fluoro-3-methoxyphenyl)-2H-indazol-2-yl)-N-hydroxy-2-methyl-2-(methylsulfonyl)butanamide]
8 | 4 (≈ 8.94 µM) | 0.125 (≈ 0.279 µM) | 0.5 (≈ 1.12 µM) | 0.125 (≈ 0.279 µM) | C[C@@](CCn1cc2c(F)c(C#CC#C[C@H]3C[C@@H]3CO)ccc2n1)(C(=O)NO)S(C)(=O)=O (relative stereo) [Example 18, (R)-4-{4-fluoro-5-[4-((1S*,2S*)-2-hydroxymethyl-cyclopropyl)-buta-1,3-diynyl]-indazol-2-yl}-N-hydroxy-2-methylsulfonyl-2-methyl-butanamide]
9 | ≤ 0.063 | 0.125 (≈ 0.26 µM) | 0.5 (≈ 1.04 µM) | ≤ 0.063 | C[C@@](CCn1cc2cc(-c3ccc(C#C[C@H]4C[C@@H]4CO)cc3)ccc2n1)(C(=O)NO)S(C)(=O)=O (relative stereo) [Example 60, (R)—N-hydroxy-4-(5-(4-(((1S*,2S*)-2-(hydroxymethyl)cyclopropyl)ethynyl)phenyl)-2H-indazol-2-yl)-2-methyl-2-(methylsulfonyl)butanamide]
10 | > 8 | 4 (≈ 8.72 µM) | 1 (≈ 2.18 µM) | 2 (≈ 4.36 µM) | C[C@@](CCn1cc2cc(C#CC#C[C@@H]3CC[C@H](N)CO3)ccc2n1)(C(=O)NO)S(C)(=O)=O (relative stereo) [Example 61, (R)-4-(5-(((2S*,5S*)-5-aminotetrahydro-2H-pyran-2-yl)buta-1,3-diyn-1-yl)-2H-indazol-2-yl)-N-hydroxy-2-methyl-2-(methylsulfonyl)butanamide]
11 | 1 (≈ 2.3 µM) | 0.063 (≈ 0.145 µM) | 2 (≈ 4.59 µM) | 0.063 (≈ 0.145 µM) | COc1ccc(-c2ccc3nn(CC[C@](C)(C(=O)NO)S(C)(=O)=O)cc3c2)c(F)c1 [Example 1, (R)-4-[5-(2-fluoro-4-methoxy-phenyl)-indazol-2-yl]-N-hydroxy-2-methylsulfonyl-2-methyl-butanamide]
12 | 1 (≈ 2.4 µM) | 0.5 (≈ 1.2 µM) | 4 (≈ 9.58 µM) | 0.125 (≈ 0.299 µM) | COc1ccc(-c2ccc3nn(CC[C@](C)(C(=O)NO)S(C)(=O)=O)cc3c2)cc1 [Example 2, (R)—N-hydroxy-2-methylsulfonyl-4-[5-(4-methoxy-phenyl)-indazol-2-yl]-2-methyl-butanamide]
13 | 0.5 (≈ 1.15 µM) | 0.125 (≈ 0.287 µM) | 2 (≈ 4.59 µM) | 0.063 (≈ 0.145 µM) | COc1ccc(-c2cc3cn(CC[C@](C)(C(=O)NO)S(C)(=O)=O)nc3cc2F)cc1 [Example 3, (R)-4-[6-fluoro-5-(4-methoxy-phenyl)-indazol-2-yl]-N-hydroxy-2-methylsulfonyl-2-methyl-butanamide]
14 | 2 (≈ 4.59 µM) | 0.5 (≈ 1.15 µM) | 4 (≈ 9.19 µM) | 0.125 (≈ 0.287 µM) | COc1ccc(-c2ccc3nn(CC[C@](C)(C(=O)NO)S(C)(=O)=O)cc3c2F)cc1 [Example 4, (R)-4-[4-fluoro-5-(4-methoxy-phenyl)-indazol-2-yl]-N-hydroxy-2-methylsulfonyl-2-methyl-butanamide]
15 | 2 (≈ 4.41 µM) | 0.063 (≈ 0.139 µM) | 4 (≈ 8.82 µM) | 0.063 (≈ 0.139 µM) | COc1ccc(-c2cc3cn(CC[C@](C)(C(=O)NO)S(C)(=O)=O)nc3cc2F)c(F)c1 [Example 5, (R)-4-[6-fluoro-5-(2-fluoro-4-methoxy-phenyl)-indazol-2-yl]-N-hydroxy-2-methylsulfonyl-2-methyl-butanamide]
16 | 2 (≈ 4.41 µM) | 0.5 (≈ 1.1 µM) | 4 (≈ 8.82 µM) | 0.125 (≈ 0.276 µM) | COc1ccc(-c2ccc3nn(CC[C@](C)(C(=O)NO)S(C)(=O)=O)cc3c2F)c(F)c1 [Example 6, (R)-4-[4-fluoro-5-(2-fluoro-4-methoxy-phenyl)-indazol-2-yl]-N-hydroxy-2-methylsulfonyl-2-methyl-butanamide]
17 | 0.5 | 0.125 | 2 | 0.25 | C[C@@](CCn1cc2cc(C#Cc3ccc(CN4CCOCC4)cc3)ccc2n1)(C(=O)NO)S(C)(=O)=O.O=CO [Example 7, (R)—N-hydroxy-2-methylsulfonyl-2-methyl-4-[5-(4-morpholin-4-ylmethyl-phenylethynyl)-indazol-2-yl]-butanamide formate]
18 | 0.125 (≈ 0.265 µM) | 0.5 (≈ 1.06 µM) | 4 (≈ 8.48 µM) | 0.25 (≈ 0.53 µM) | C[C@@](CCn1cc2cc(-c3ccc(OC(F)(F)F)cc3)ccc2n1)(C(=O)NO)S(C)(=O)=O [Example 8, (R)—N-hydroxy-2-methylsulfonyl-2-methyl-4-[5-(4-trifluoromethoxy-phenyl)-indazol-2-yl]-butanamide]
19 | 0.25 (≈ 0.554 µM) | 0.063 (≈ 0.14 µM) | 2 (≈ 4.43 µM) | 0.063 (≈ 0.14 µM) | CSc1ccc(-c2ccc3nn(CC[C@](C)(C(=O)NO)S(C)(=O)=O)cc3c2)c(F)c1 [Example 9, (R)-4-[5-(2-fluoro-4-methylsulfanyl-phenyl)-indazol-2-yl]-N-hydroxy-2-methylsulfonyl-2-methyl-butanamide]
20 | 2 | 0.5 | 2 | 0.5 | C[C@@](CCn1cc2cc(C#Cc3ccc(C4(N)COC4)cc3)ccc2n1)(C(=O)NO)S(C)(=O)=O.Cc1ccc(S(=O)(=O)O)cc1 [Example 10, (R)-4-{5-[4-(3-amino-oxetan-3-yl)-phenylethynyl]-indazol-2-yl}-N-hydroxy-2-methylsulfonyl-2-methyl-butanamide toluene-4-sulfonate]
21 | 2 (≈ 4.65 µM) | 0.063 (≈ 0.146 µM) | 8 (≈ 18.6 µM) | 0.063 (≈ 0.146 µM) | CN(C)c1ccc(-c2ccc3nn(CC[C@](C)(C(=O)NO)S(C)(=O)=O)cc3c2)cc1 [Example 11, (R)-4-[5-(4-dimethylamino-phenyl)-indazol-2-yl]-N-hydroxy-2-methylsulfonyl-2-methyl-butanamide]
22 | 1 (≈ 2.2 µM) | 0.125 (≈ 0.275 µM) | 2 (≈ 4.4 µM) | 0.063 (≈ 0.139 µM) | C[C@@](CCn1cc2cc(-c3ccc(-n4nccn4)cc3)ccc2n1)(C(=O)NO)S(C)(=O)=O [Example 12, (R)—N-hydroxy-2-methylsulfonyl-2-methyl-4-[5-(4-[1,2,3]triazol-2-yl-phenyl)-indazol-2-yl]-butanamide]
23 | 32 (≈ 71.5 µM) | 0.25 (≈ 0.559 µM) | 0.5 (≈ 1.12 µM) | 0.125 (≈ 0.279 µM) | C[C@@](CCn1cc2cc(C#CC#CC3(O)CSC3)ccc2n1)(C(=O)NO)S(C)(=O)=O [Example 13, (R)—N-hydroxy-4-(5-((3-hydroxythietan-3-yl)buta-1,3-diyn-1-yl)-2H-indazol-2-yl)-2-methyl-2-(methylsulfonyl)butanamide]
24 | 16 (≈ 32.8 µM) | 0.25 (≈ 0.513 µM) | 2 (≈ 4.1 µM) | 0.25 (≈ 0.513 µM) | CC(C)(O)c1ccc(C#Cc2ccc3nn(CC[C@](C)(C(=O)NO)S(C)(=O)=O)cc3c2F)cc1 [Example 14, (R)-4-(4-fluoro-5-((4-(2-hydroxypropan-2-yl)phenyl)ethynyl)-2H-indazol-2-yl)-N-hydroxy-2-methyl-2-(methylsulfonyl)butanamide]
